Source: patent publication US20090069370A1, “AZACYCLYLISOQUINOLINONE AND ISOINDOLINONE DERIVATIVES AS HISTAMINE-3 ANTAGONISTS” (Wyeth, priority 2007, published 2009)
Structures can show the parent of a compound that is named as a salt.

Row | Structure (SMILES) | melting point
1 | CCNC(=O)c1ccc(-c2ccc3c(c2)CCN([C@@H]2CCN(C4CCC4)C2)C3=O)c(F)c1 (as salt: hydrochloride) [Example 77, 4-{2-[(3R)-1-cyclobutylpyrrolidin-3-yl]-1-oxo-1,2,3,4-tetrahydroisoquinolin-6-yl}-N-ethyl-3-fluorobenzamide] | > 205 °C
2 | CN(C)C(=O)c1ccc(-c2ccc3c(c2)CCN([C@@H]2CCN(C4CCC4)C2)C3=O)c(F)c1 (as salt: hydrochloride) [Example 78, 4-{2-[(3R)-1-cyclobutylpyrrolidin-3-yl]-1-oxo-1,2,3,4-tetrahydroisoquinolin-6-yl}-3-fluoro-N,N-dimethylbenzamide] | 209 to 210 °C
3 | O=C(c1ccc(-c2ccc3c(c2)CCN([C@@H]2CCN(C4CCC4)C2)C3=O)c(F)c1)N1CCCC1 (as salt: hydrochloride) [Example 79, 2-[(3R)-1-cyclobutylpyrrolidin-3-yl]-6-[2-fluoro-4-(pyrrolidin-1-ylcarbonyl)phenyl]-3,4-dihydroisoquinolin-1(2H)-one] | 211 to 212 °C
4 | CNC(=O)c1ccc(-c2ccc3c(c2)CCN([C@@H]2CCN(C(C)C)C2)C3=O)cc1 (as salt: hydrochloride) [Example 82] | > 275 °C
5 | CC(C)N1CC[C@@H](N2CCc3cc(-c4ccc(C(=O)N5CCCC5)cc4F)ccc3C2=O)C1 (as salt: hydrochloride) [Example 84, 6-[2-fluoro-4-(pyrrolidin-1-ylcarbonyl)phenyl]-2-[(3R)-1-isopropylpyrrolidin-3-yl]-3,4-dihydroisoquinolin-1(2H)-one] | 249 to 250 °C
6 | CCNC(=O)c1ccc(-c2ccc3c(c2)CCN([C@@H]2CCN(C(C)C)C2)C3=O)c(F)c1 (as salt: hydrochloride) [Example 86, N-ethyl-3-fluoro-4-{2-[(3R)-1-isopropylpyrrolidin-3-yl]-1-oxo-1,2,3,4-tetrahydroisoquinolin-6-yl}benzamide] | > 255 °C
7 | O=C(NC1CCCC1)c1ccc2c(c1)CCN([C@@H]1CCN(C3CCC3)C1)C2=O (as salt: hydrochloride) [Example 88, 2-[(3R)-1-cyclobutylpyrrolidin-3-yl]-N-cyclopentyl-1-oxo-1,2,3,4-tetrahydroisoquinoline-6-carboxamide hydrochloride] | 124 to 125 °C
8 | O=C1NCCc2cc(-c3ccc4c(c3)CCN([C@@H]3CCN(C5CCC5)C3)C4=O)ccc21 (as salt: hydrochloride) [Example 89, (R)-2-(1-cyclobutylpyrrolidin-3-yl)-3,3′,4,4′-tetrahydro-6,6′-biisoquinoline-1,1′(2H,2′H)-dione hydrochloride] | > 274 °C
9 | O=C(c1ccc(-c2ccc3c(c2)CN([C@@H]2CCN(C4CCC4)C2)C3=O)cc1)N1CCCC1 (as salt: hydrochloride) [Example 92, (R)-2-(1-cyclobutylpyrrolidin-3-yl)-5-(4-(pyrrolidine-1-carbonyl)-phenyl)isoindolin-1-one hydrochloride] | 220 to 221 °C
10 | O=C(c1ccc(-c2ccc3c(c2)CCN(C2CCNCC2)C3=O)cc1)N1CCCC1 [Example 64, 2-(piperidin-4-yl)-6-(4-(pyrrolidine-1-carbonyl)phenyl)-3,4-dihydroisoquinolin-1(2H)-one] | > 273 °C
11 | CNC(=O)c1ccc(-c2ccc3c(c2)CCN([C@H]2CCN(C4CCC4)C2)C3=O)cc1.Cl [Example 90, (R)-4-(2-(1-cyclobutylpyrrolidin-3-yl)-1-oxo-1,2,3,4-tetrahydro-isoquinolin-6-yl)-N-methylbenzamide hydrochloride] | 265 to 266 °C

Further lines, results first:

Row | melting point | Structure (SMILES)
12 | > 200 °C | O=C(NC1CC1)c1ccc(-c2ccc3c(c2)CCN([C@@H]2CCN(C4CCC4)C2)C3=O)c(F)c1 (as salt: hydrochloride) [Example 81, 4-{2-[(3R)-1-cyclobutylpyrrolidin-3-yl]-1-oxo-1,2,3,4-tetrahydroisoquinolin-6-yl}-N-cyclopropyl-3-fluorobenzamide]
13 | > 270 °C | CCNC(=O)c1ccc(-c2ccc3c(c2)CCN([C@@H]2CCN(C(C)C)C2)C3=O)cc1 (as salt: hydrochloride) [Example 83, N-ethyl-4-{2-[(3R)-1-isopropylpyrrolidin-3-yl]-1-oxo-1,2,3,4-tetrahydroisoquinolin-6-yl}benzamide]
14 | 245 to 247 °C | CNC(=O)c1ccc(-c2ccc3c(c2)CCN([C@@H]2CCN(C(C)C)C2)C3=O)c(F)c1 (as salt: hydrochloride) [Example 85, 3-fluoro-4-{2-[(3R)-1-isopropylpyrrolidin-3-yl]-1-oxo-1,2,3,4-tetrahydroisoquinolin-6-yl}-N-methylbenzamide]
15 | 207 to 208 °C | CNC(=O)c1ccc(-c2ccc3c(c2)CN([C@@H]2CCN(C4CCC4)C2)C3=O)cc1 (as salt: hydrochloride) [Example 91, (R)-4-(2-(1-cyclobutylpyrrolidin-3-yl)-1-oxoisoindolin-5-yl)-N-methylbenzamide hydrochloride]
16 | 197 to 198 °C | O=C(c1ccc(-c2ccc3c(c2)CCN(C2CCN(Cc4ccccc4)CC2)C3=O)cc1)N1CCCC1 [Example 63, 2-(1-benzylpiperidin-4-yl)-6-(4-(pyrrolidine-1-carbonyl)phenyl)-3,4-dihydroisoquinolin-1(2H)-one]
